Test results: the supplement of paper PMC10307832

Experiments:
Experiment in all cases: relative viability (nuclei count vs DMSO), 5 days (fraction); higher = more cells survive
[1] = compound: CCn1c(-c2nonc2N)nc2cnc(Oc3cccc(NC(=O)c4ccc(OCCN5CCOCC5)cc4)c3)cc21 + Cc1cc(Nc2cc(N3CCN(C)CC3)nc(Sc3ccc(NC(=O)C4CC4)cc3)n2)n[nH]1 [Tozasertib] (partner 0.1 µM)
Method in brief: (§1)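 Values are medians from duplicate plates. Each reflects relative viability, defined as the nuclei count of treated wells over that of vehicle wells. Lung cancer cell lines in 1536-well plates were pin-tool dosed one day after seeding with one drug alone or with a fixed anchor-drug dose plus five library-drug doses (not always all listed) in √10 steps, then fixed, stained and imaged at 4× after 5 days.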

[2] = compound: CCC1=CN=CN=C1N2CCN(CC2)CC3=NC4=C(N3)C=C(C=C4)C(F)(F)F + COc1cccc2cc(-c3nc([C@H]4CC[C@H](C(=O)O)CC4)n4ncnc(N)c34)[nH]c12 [OSI-027] (partner 0.5 µM)
Method in brief: as §1

[3] = compound: N=C1NC(=O)/C(=C/c2ccc(O)cc2)S1 [Mirin] + C[C@@H](Oc1cc(-c2cnn(C3CCNCC3)c2)cnc1N)c1c(Cl)ccc(F)c1Cl [Crizotinib] (partner 1 µM)
Method in brief: as §1

[4] = compound: N=C1NC(=O)/C(=C/c2ccc(O)cc2)S1 [Mirin] + O=C(CCCCCCC(=O)Nc1ccccc1)NO [Vorinostat] (partner 1 µM)
Method in brief: as §1

Cell Line	relative viability ([1]; first compound 0.04 µM)	relative viability ([1]; first compound 0.1265 µM)	relative viability ([1]; first compound 0.4 µM)	relative viability ([1]; first compound 1.265 µM)	relative viability ([1]; first compound 4 µM)	relative viability ([2]; first compound 0.04 µM)	relative viability ([2]; first compound 0.1265 µM)	relative viability ([2]; first compound 0.4 µM)	relative viability ([2]; first compound 1.265 µM)	relative viability ([2]; first compound 4 µM)	relative viability ([3]; first compound 0.25 µM)	relative viability ([3]; first compound 0.7906 µM)	relative viability ([3]; first compound 2.5 µM)	relative viability ([3]; first compound 25 µM)	relative viability ([4]; first compound 0.25 µM)	relative viability ([4]; first compound 0.7906 µM)	relative viability ([4]; first compound 2.5 µM)	relative viability ([4]; first compound 7.906 µM)	relative viability ([4]; first compound 25 µM)	relative viability ([3]; first compound 7.906 µM)
HOP-62	0.393	0.445	0.344	0.283	0.234	0.81	0.794	0.756	0.757	0.85	1.05	0.815	0.828	0.937	0.669	0.527	0.679	0.411	0.603	
NCI-H661	0.377	0.367	0.37	0.372	0.266	0.629	0.674	0.669	0.586	0.621		1.01	0.861	1.17	0.789	0.839	0.74	0.776	0.77	
NCI-H358	0.0993	0.102	0.116	0.0599	0.0812	0.867	0.656	0.772	0.62	0.764	0.553	0.678	0.536	0.243	0.698	0.729	0.698	0.737	0.453	0.329
BEN	0.453	0.415	0.518	0.494	0.357	0.299	0.276	0.317	0.223	0.256	0.855	0.753	1.01	0.43	0.473	0.58	0.6	0.555	0.542	0.82
